Measurements published in patent US11897862B2 (Gilead Sciences, Inc., priority 2022, dated 2024).

How the values were obtained:
Assay type in all cases: cell-based
IKZF2 [1] = molecular target: T1, IKZF2 (Homo sapiens, UniProt Q96SW2+Q9UKS7); assay: HEK293 HiBiT in vitro degradation of IKZF2; parameters: expressed in transfected cells; settings: for Dmax: HEK293, HEK293 HiBiT; for Dmax / IKZF2 Dmax: maximum degradation at the highest concentration tested; for DC50 / IKZF2 Dmax: HEK293 HiBiT; for DC50: 18-24 hr incubation, normalized to DMSO control, read-out: IKZF2 EC50
Outline: (§1)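 Dox-inducible ([…] final, overnight) HEK293 Flp-In T-REx, single-copy target-HiBiT C-terminal fusion; compound serial dilution, 18-24 h, 37 °C; lytic Nano-Glo luminescence; EC50, Dmax.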
Target sequence in this assay (Q9UKS7 1-500 isoform Q9UKS7-2): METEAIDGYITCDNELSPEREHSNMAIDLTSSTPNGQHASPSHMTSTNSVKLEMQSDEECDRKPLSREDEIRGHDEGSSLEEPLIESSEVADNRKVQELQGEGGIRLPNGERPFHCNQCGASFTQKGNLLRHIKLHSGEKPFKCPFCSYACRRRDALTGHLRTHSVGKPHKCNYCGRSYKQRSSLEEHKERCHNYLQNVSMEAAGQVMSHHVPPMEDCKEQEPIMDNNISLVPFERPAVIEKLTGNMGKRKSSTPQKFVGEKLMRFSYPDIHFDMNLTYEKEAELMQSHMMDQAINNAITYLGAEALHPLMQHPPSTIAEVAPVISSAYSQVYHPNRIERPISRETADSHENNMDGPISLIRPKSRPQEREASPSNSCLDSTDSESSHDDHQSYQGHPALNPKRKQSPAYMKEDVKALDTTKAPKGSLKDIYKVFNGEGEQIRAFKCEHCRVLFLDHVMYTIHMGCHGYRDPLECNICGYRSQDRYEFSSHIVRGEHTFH
Target sequence in this assay (Q96SW2 whole entry, the tested form may be a part): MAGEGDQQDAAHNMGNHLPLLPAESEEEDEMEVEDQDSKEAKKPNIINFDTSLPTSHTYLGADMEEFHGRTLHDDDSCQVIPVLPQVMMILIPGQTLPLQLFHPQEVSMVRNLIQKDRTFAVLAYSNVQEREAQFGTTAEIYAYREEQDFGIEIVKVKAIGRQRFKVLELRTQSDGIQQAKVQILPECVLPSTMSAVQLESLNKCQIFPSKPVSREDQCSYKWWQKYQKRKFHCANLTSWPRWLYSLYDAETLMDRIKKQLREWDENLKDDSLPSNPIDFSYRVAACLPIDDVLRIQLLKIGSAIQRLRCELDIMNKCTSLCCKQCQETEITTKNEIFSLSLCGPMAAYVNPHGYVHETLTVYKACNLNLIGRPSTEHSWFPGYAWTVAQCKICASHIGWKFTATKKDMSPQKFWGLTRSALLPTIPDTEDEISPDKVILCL
Target sequence in this assay (Q16531 whole entry partner, the tested form may be a part): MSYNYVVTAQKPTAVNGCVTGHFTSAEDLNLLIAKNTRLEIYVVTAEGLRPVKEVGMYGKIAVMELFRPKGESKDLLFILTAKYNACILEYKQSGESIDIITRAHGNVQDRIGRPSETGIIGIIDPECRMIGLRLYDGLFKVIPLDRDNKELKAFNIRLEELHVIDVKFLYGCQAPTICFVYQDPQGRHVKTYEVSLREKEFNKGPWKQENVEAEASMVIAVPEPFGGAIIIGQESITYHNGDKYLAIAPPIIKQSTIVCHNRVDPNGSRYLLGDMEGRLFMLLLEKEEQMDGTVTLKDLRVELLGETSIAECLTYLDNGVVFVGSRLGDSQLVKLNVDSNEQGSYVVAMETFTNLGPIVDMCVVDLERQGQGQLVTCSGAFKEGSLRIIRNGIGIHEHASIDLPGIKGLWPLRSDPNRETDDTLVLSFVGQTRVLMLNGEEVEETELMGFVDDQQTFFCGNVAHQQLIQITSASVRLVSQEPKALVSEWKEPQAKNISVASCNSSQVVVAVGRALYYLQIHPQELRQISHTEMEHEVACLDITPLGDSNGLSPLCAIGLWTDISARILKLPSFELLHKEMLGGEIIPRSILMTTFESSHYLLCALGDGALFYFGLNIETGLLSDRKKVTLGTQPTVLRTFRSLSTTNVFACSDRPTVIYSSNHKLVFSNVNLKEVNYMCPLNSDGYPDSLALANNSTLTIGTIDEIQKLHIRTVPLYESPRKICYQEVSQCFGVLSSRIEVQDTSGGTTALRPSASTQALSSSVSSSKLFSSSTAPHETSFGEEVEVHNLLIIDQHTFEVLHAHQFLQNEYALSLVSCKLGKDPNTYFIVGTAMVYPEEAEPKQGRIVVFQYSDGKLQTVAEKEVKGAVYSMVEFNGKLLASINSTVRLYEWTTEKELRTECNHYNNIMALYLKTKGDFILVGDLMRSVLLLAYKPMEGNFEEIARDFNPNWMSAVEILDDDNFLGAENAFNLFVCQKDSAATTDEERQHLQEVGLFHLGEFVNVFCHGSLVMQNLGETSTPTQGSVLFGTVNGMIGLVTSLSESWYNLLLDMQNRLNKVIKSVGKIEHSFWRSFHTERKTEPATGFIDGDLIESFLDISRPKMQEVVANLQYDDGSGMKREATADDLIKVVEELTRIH

IKZF1 = molecular target: T2, IKZF1 (Homo sapiens, UniProt Q13422+Q96SW2); assay: HEK293 HiBiT in vitro degradation of IKZF1; settings: for Dmax: HEK293, HEK293 HiBiT; for Dmax / IKZF1 Dmax: maximum degradation at the highest concentration tested; for DC50 / IKZF1 Dmax: HEK293 HiBiT; for DC50: 18-24 hr incubation, normalized to DMSO control, read-out: IKZF1 EC50
T2 construct: expressed in transfected cells
Outline: as §1

IKZF2 [2] = molecular target: T1, IKZF2; assay: Human whole blood IKZF2 degradation (flow cytometry, CD4/CD25/Foxp3+ Treg cells); parameters: endogenous in cells; settings: 24 hrs incubation, IKZF2 MFI in CD4/CD25/Foxp3+ Treg cells, flow cytometry; for DC50: read-out: IKZF2 EC50
Method: In vitro IKZF2 potency was assessed in human whole blood using a fluorescence activated cell sorting assay. 50 μL of freshly collected blood from healthy human volunteers was incubated with Immunocult CD3/CD28 activator (Stemcell Technologies) and solution of testing compounds (serially-diluted) for 24 hrs hours at 37° C. in 384 well plates. The treated red blood cells were removed by adding lysis buffer (BD cat #558049) then the cells were fixed, permeabilized, and stained with anti-CD4 (BD cat #564419), anti-Foxp3 (Invitrogen cat #48-4777-42), anti-IKZF1 (Cell Signaling Tech. cat #33462S), and anti-IKZF2(Cell Signaling Tech. cat #65432S) antibodies. The median fluorescent intensity (MFI) of IKZF2 signal from CD4/CD25/Foxp3+ Treg cells and MFI of IKZF1 signal from CD4+ T cells were quantified in the same samples by flow cytometry using an Attune instrument. EC50 and Dmax of each compound was determined by plotting the MFI and DMSO treated wells were used as control. Asterisks (*) indicate examples for which data represents an average of n≥3 repeat experiments.
Target sequence in this assay (Q9UKS7 whole entry, the tested form may be a part): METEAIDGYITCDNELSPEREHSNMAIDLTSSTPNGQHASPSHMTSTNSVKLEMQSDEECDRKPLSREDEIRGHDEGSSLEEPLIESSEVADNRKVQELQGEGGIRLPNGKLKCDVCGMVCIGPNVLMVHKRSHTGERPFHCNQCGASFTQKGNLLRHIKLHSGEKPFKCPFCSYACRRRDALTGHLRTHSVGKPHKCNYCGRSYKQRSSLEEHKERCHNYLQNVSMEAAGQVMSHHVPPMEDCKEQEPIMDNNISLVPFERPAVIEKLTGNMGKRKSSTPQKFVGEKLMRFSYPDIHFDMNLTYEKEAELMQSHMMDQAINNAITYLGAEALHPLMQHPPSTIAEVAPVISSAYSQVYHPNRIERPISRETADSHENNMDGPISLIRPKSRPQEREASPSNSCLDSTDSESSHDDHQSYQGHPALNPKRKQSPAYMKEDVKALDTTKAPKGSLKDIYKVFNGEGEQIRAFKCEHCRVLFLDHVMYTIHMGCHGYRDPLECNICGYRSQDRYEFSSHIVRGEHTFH
Target sequence in this assay (Q96SW2 whole entry, the tested form may be a part): as the sequence (Q96SW2 whole entry, the tested form may be a part) above
Target sequence in this assay (Q16531 whole entry partner, the tested form may be a part): as the sequence (Q16531 whole entry partner, the tested form may be a part) above

T2 sequence (Q13422 whole entry): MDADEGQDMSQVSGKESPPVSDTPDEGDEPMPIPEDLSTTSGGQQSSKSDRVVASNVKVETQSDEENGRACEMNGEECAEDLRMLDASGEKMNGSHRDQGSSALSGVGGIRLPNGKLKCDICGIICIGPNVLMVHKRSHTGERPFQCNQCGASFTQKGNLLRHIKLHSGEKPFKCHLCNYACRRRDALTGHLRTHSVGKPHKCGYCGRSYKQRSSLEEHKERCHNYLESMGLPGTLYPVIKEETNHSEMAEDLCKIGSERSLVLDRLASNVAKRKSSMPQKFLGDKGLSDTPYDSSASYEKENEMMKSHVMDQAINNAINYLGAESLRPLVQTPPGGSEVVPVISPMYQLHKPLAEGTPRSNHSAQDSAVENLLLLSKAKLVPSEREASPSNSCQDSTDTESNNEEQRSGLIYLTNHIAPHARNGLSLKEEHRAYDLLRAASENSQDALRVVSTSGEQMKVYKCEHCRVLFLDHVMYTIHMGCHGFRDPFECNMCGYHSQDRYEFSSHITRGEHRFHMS
T2 sequence (Q96SW2 whole entry): as the sequence (Q96SW2 whole entry, the tested form may be a part) above
T2 sequence (Q16531 whole entry partner): as the sequence (Q16531 whole entry partner, the tested form may be a part) above

| SMILES | Dmax (IKZF2 [1]) | DC50 (IKZF2 [1]) | Dmax (IKZF1) | DC50 (IKZF1) | Dmax (IKZF2 [2]) | DC50 (IKZF2 [2]) | IKZF2 Dmax (IKZF2 [1]) | IKZF2 Dmax (IKZF2 [2]) | IKZF1 Dmax (IKZF1) |
| --- | --- | --- | --- | --- | --- | --- | --- | --- | --- |
| CC(C)(C)CCN[C@H]1CCCC[C@@H]1Cc1ccc2c(c1)CN(C1CCC(=O)NC1=O)C2=O (stereo partly drawn) [Example 56, 3-(5-(((1R,2S)-2-((3,3-dimethylbutyl)amino)cyclohexyl)methyl)-1-oxoisoindolin-2-yl)piperidine-2,6-dione] | 96% | 14 nM | 44% | 68 nM | 97% | 8 nM | – | – | – |
| O=C1CCC(N2Cc3c(ccc(C[C@H]4OCCC[C@@H]4NC4CCOCC4)c3F)C2=O)C(=O)N1 (stereo partly drawn) [Example 305] | 96% | 14 nM | – | > 1000 nM | 95% | 4 nM | – | – | – |
| O=C1CCC(N2Cc3cc(C[C@H]4CCCC[C@@H]4NC4CC5(CCOCC5)C4)ccc3C2=O)C(=O)N1 (stereo partly drawn) [Example 125] | 96% | 17 nM | 26% | 126 nM | 91% | 3 nM | – | – | – |
| CC1(C)CC(N[C@H]2CCCO[C@@H]2Cc2ccc3c(c2F)CN(C2CCC(=O)NC2=O)C3=O)CCO1 (stereo partly drawn) [Example 223] | – | 12 nM | – | > 1000 nM | – | 3 nM | 96% | 95% | – |
| CC(N[C@H]1CCCC[C@@H]1Cc1ccc2c(c1F)CN(C1CCC(=O)NC1=O)C2=O)C1CCOCC1 (single isomer, unassigned) [Example 288] | – | 6 nM | – | 399 nM | – | 5 nM | 97% | 92% | 32% |
| CN(C1CCC(F)(F)CC1)[C@H]1CCCC[C@@H]1Cc1ccc2c(c1F)CN(C1CCC(=O)NC1=O)C2=O (stereo partly drawn) [Example 124] | 94% | 16 nM | – | > 10000 nM | 91% | 23 nM | – | – | – |
| O=C1CCC(N2Cc3cc(C[C@H]4OCCC[C@@H]4NC4CCCCC4)ccc3C2=O)C(=O)N1 (stereo partly drawn) [Example 95, 3-(5-(((2R,3S)-3-(cyclohexylamino)tetrahydro-2H-pyran-2-yl)methyl)-1-oxoisoindolin-2-yl)piperidine-2,6-dione] | 88% | 16 nM | – | > 10000 nM | 89% | 11 nM | – | – | – |
| CC(C)CCN[C@H]1CCCC[C@@H]1Cc1ccc2c(c1)CN(C1CCC(=O)NC1=O)C2=O (stereo partly drawn) [Example 129] | 95% | 13 nM | 25% | 93 nM | 91% | 9 nM | – | – | – |
| CC1(C)CC(N[C@H]2CCCC[C@@H]2Cc2ccc3c(c2)CN(C2CCC(=O)NC2=O)C3=O)CCO1 (stereo partly drawn) [Example 110] | – | 5 nM | – | 163 nM | – | 3 nM | 96% | 98% | 32% |
| CC(C)(C)CCN[C@H]1CCCC[C@@H]1Cc1ccc2c(c1F)CN(C1CCC(=O)NC1=O)C2=O (stereo partly drawn) [Example 89, 3-(5-(((1R,2S)-2-((3,3-dimethylbutyl)amino)cyclohexyl)methyl)-4-fluoro-1-oxoisoindolin-2-yl)piperidine-2,6-dione] | 97% | 6 nM | 28% | 64 nM | 97% | 5 nM | – | – | – |
| CC(N[C@H]1CCCC[C@@H]1Cc1ccc2c(c1)CN(C1CCC(=O)NC1=O)C2=O)C1(C)CCC1 (stereo partly drawn) [Example 206] | 95% | 6 nM | – | > 1000 nM | 101% | 10 nM | – | – | – |
| O=C1CCC(N2Cc3cc(C[C@H]4CCCC[C@@H]4NC4CC5(C4)CC(F)(F)C5)ccc3C2=O)C(=O)N1 (stereo partly drawn) [Example 101] | 98% | 5 nM | 32% | 39 nM | 95% | 6 nM | – | – | – |

The remaining lines, values ahead:

| Dmax (IKZF2 [1]) | DC50 (IKZF2 [1]) | Dmax (IKZF1) | DC50 (IKZF1) | Dmax (IKZF2 [2]) | DC50 (IKZF2 [2]) | IKZF2 Dmax (IKZF2 [1]) | IKZF2 Dmax (IKZF2 [2]) | IKZF1 Dmax (IKZF1) | SMILES |
| --- | --- | --- | --- | --- | --- | --- | --- | --- | --- |
| 94% | 5 nM | 33% | 98 nM | 93% | 5 nM | – | – | – | O=C1CCC(N2Cc3cc(C[C@H]4CCCC[C@@H]4NC4CC5(CC5)C4)ccc3C2=O)C(=O)N1 (stereo partly drawn) [Example 79, 3-(1-oxo-5-(((1R,2S)-2-(spiro[2.3]hexan-5-ylamino)cyclohexyl)methyl)isoindolin-2-yl)piperidine-2,6-dione] |
| 97% | 3 nM | 23% | 60 nM | 98% | 3 nM | – | – | – | O=C1CCC(N2Cc3cc(C[C@H]4CCCC[C@@H]4NC4CCCCCC4)ccc3C2=O)C(=O)N1 (stereo partly drawn) [Example 196] |
| – | 3 nM | – | 85 nM | 89% | 2 nM | 97% | – | 44% | O=C1CCC(N2Cc3cc(C[C@H]4CCCC[C@@H]4NC4CCC(C(F)F)CC4)ccc3C2=O)C(=O)N1 (stereo partly drawn) [Example 217] |
| 96% | 2 nM | 44% | 55 nM | 100% | 4 nM | – | – | – | O=C1CCC(N2Cc3cc(C[C@H]4CCCC[C@@H]4NC4CCC(OC(F)(F)F)CC4)ccc3C2=O)C(=O)N1 (single isomer, unassigned) [Example 145] |
| 96% | 5 nM | 22% | 65 nM | 98% | 3 nM | – | – | – | [2H]C1(N[C@H]2CCCC[C@@H]2Cc2ccc3c(c2)CN(C2CCC(=O)NC2=O)C3=O)CC(C)(C)C1 (stereo partly drawn) [Example 214] |
| – | 1 nM | 34% | 54 nM | – | 2 nM | 97% | 99% | – | CC(N[C@H]1CCCC[C@@H]1Cc1ccc2c(c1)CN(C1CCC(=O)NC1=O)C2=O)C1CC(F)(F)C1 (single isomer, unassigned) [Example 137] |
| – | 2 nM | – | 57 nM | – | 1 nM | 97% | 91% | 44% | O=C1CCC(N2Cc3c(ccc(C[C@H]4CCCC[C@@H]4NC4CCOC4)c3F)C2=O)C(=O)N1 (stereo partly drawn) [Example 118] |
| 98% | 4 nM | 44% | 109 nM | 97% | 2 nM | – | – | – | N#CC1CCC(N[C@H]2CCCC[C@@H]2Cc2ccc3c(c2)CN(C2CCC(=O)NC2=O)C3=O)CC1 (single isomer, unassigned) [Example 267] |
| 98% | 2 nM | 54% | 46 nM | 92% | 2 nM | – | – | – | [2H]C1(N[C@H]2CCCC[C@@H]2Cc2ccc3c(c2)CN(C2CCC(=O)NC2=O)C3=O)CCC(F)(F)CC1 (stereo partly drawn) [Example 119] |
| 97% | 4 nM | – | > 1000 nM | 97% | 6 nM | – | – | – | CC(N[C@H]1CCCC[C@@H]1Cc1ccc2c(c1)CN(C1CCC(=O)NC1=O)C2=O)C1CC(F)(F)C1 (single isomer, unassigned) [Example 136] |
| – | 3 nM | – | 105 nM | – | 1 nM | 98% | 97% | 31% | COCC1CCC(N[C@H]2CCCC[C@@H]2Cc2ccc3c(c2)CN(C2CCC(=O)NC2=O)C3=O)CC1 (single isomer, unassigned) [Example 252] |
| 97% | 2 nM | 40% | 70 nM | 96% | 2 nM | – | – | – | CC(C)N[C@H]1CCCC[C@@H]1Cc1ccc2c(c1F)CN(C1CCC(=O)NC1=O)C2=O (stereo partly drawn) [Example 85, 3-(4-fluoro-5-(((1R,2S)-2-(isopropylamino)cyclohexyl)methyl)-1-oxoisoindolin-2-yl)piperidine-2,6-dione] |
